# Measured values reported in patent US20080234363A1, “Antitumoral Compounds” (PHARMA MAR, S.A., priority 2005, published 2008).
# pIC50: −log10 of the molar value.
# What was measured:
# [1] = test system: MDA-MB-231; experiment: SRB antitumor screening, MDA-MB-231; type: cell-based, human; conditions: Breast MDA-MB-231, SRB, 48 hours exposure; for GI50: Homo sapiens
# Description: (§1) The finality of these assays was to interrupt the growth of a “in vitro” tumor cell culture by means of a continued exhibition of the cells to the sample to be testing.
# (§2) A colorimetric type of assay, using sulforhodamine B (SRB) reaction has been adapted for a quantitative measurement of cell growth and viability [following the technique described by Philip Skehan et al. (1990), New colorimetric cytotoxicity assay for anticancer drug screening, J. Natl. Cancer Inst., 82:1107-1112].
# (§3) This form of assay employed 96 well cell culture microplates of 9 mm diameter (Faircloth et al. Methods in cell science, (1988), 11(4), 201-205; Mosmann, Journal of. Immunological Methods (1983), 65(1-2), 55-63. Most of the cell lines were obtained from American Type Culture Collection (ATCC) derived from different human cancer types.
# (§4) Cells were maintained in RPMI 1640 10% FBS, supplemented with 0.1 g/L penicillin and 0.1 g/L streptomycin sulphate and then incubated at 37° C., 5% CO2 and 98% humidity. For the experiments, cells were harvested from subconfluent cultures using trypsin and resuspended in fresh medium before plating.
# (§5) Cells were seeded in 96 well microtiter plates, at 5×10^3 cells per well in aliquots of 195 μL medium, and they were allowed to attach to the plate surface by growing in drug free medium for 18 hours. Afterward, samples were added in aliquots of 5 μL in a ranging from 10 to 10^−8 μg/mL, dissolved in DMSO:EtOH:PBS (0.5:0.5:99). After 48 hours exposure, the antitumor effect were measured by the SRB methodology: cells were fixed by adding 50 μL of cold 50% (wt/vol) trichloroacetic acid (TCA) and incubated for 60 minutes at 4° C. Plates were washed with deionised water and dried. […] Optical densities were read on an automated spectrophotometric plate reader at a single wavelength of 490 nm.
# (§6) The values for mean +/−SD of data from triplicate wells were calculated. Some parameters for cellular responses could be calculated: GI=growth inhibition, TGI=total growth inhibition (cytostatic effect) and LC=cell killing (cytotoxic effect).
# [2] = test system: HT29; experiment: SRB antitumor screening, HT29; type: cell-based, human; conditions: Colon HT29, SRB, 48 hours exposure; for GI50: Homo sapiens, HT-29
# Description: as §1, §2, §3, §4, §5, §6
# [3] = test system: A549; experiment: SRB antitumor screening, A549; type: cell-based; conditions: for CC50 / GI50: Homo sapiens; for CC50: A549, 48 h, read-out: LC50; for GI50 / TGI: NSCL A549, SRB, 48 hours exposure
# Description: as §1, §2, §3, §4
# Cells were seeded in 96 well microtiter plates, at 5×10^3 cells per well in aliquots of 195 μL medium, and they were allowed to attach to the plate surface by growing in drug free medium for 18 hours. Afterward, samples were added in aliquots of 5 μL in a ranging from 10 to 10^−8 μg/mL, dissolved in DMSO:EtOH:PBS (0.5:0.5:99). After 48 hours exposure, the antitumor effect were measured by the SRB methodology: cells were fixed by adding 50 μL of cold 50% (wt/vol) trichloroacetic acid (TCA) and incubated for 60 minutes at 4° C. Plates were washed with deionised water and dried. One hundred μL of SRB solution (0.4% wt/vol in 1% acetic acid) was added to each microtiter well and incubated for 10 minutes at room temperature. Unbound SRB was removed by washing with 1% acetic acid. Plates were air dried and bound stain was solubilized with Tris buffer. Optical densities were read on an automated spectrophotometric plate reader at a single wavelength of 490 nm.
# as §6
# [4] = test system: EGFR intracellular signaling (AP-1 activity); experiment: EGFR signalling inhibition assay (AP-1 luciferase reporter, HeLa-AP1); type: cell-based; conditions: Homo sapiens; HeLa-AP1 cells, EGF 25 ng/mL stimulation, 18 hours
# Description: In this assay, the signal transduction pathway triggered by the activated Epidermal Growth Factor (EGF) membrane receptor is indirectly quantified using an EGF-responsive, API-mediated, luciferase reporter system.
# HeLa-AP1, a subclone of HeLa cell line (human cervix carcinoma, ATCC# CCL-2) stably transfected with a construct containing the luciferase reporter gene under the control of the proximal promoter of the human collagenase-3 gene (consensus AP-1 response element TGACTCA at positions −56/−50) were used. Cells were maintained in DMEM supplemented with 10% FCS and 100 units/mL penicillin and streptomycin at 37° C. and 5% CO2. HeLa-AP1 cells were pre-treated with the indicated compounds for 30 min before stimulation with EGF (25 ng/mL). After further 18 hours incubation, cell survival was estimated, for normalisation, by loading cells for 30 min with the vital fluorescent probe calcein-AM (0.5 μM). Fluorescence was quantified using a 1420 Victor^2 plate multilabel counter (Wallac). After that, cells were lysed and assayed for luciferase activity using the Bright-Glo system (Promega) and a 1450 Microbeta plate luminescence counter (Wallac-Trilux). Results were expressed as percentage of AP-1 activity inhibition as compared to control, untreated cells.
# [5] = Single-administration dose range finding in mice (MTD); conditions: mouse, in vivo; CD-1 male mice, single intravenous administration, vehicle micelles
# Procedure: The finality of this assay was to determine the maximum tolerated dose (MTD) in mice by a single administration of the drug.
# CD-1 male mice were used for this study, weighing ca. 25 g were randomly allocated to several dosing groups. Animals received a single intravenous administration of Stigmatellin A (CAS Number: 91682-96-1, purchased from Fluka (Ref: 85865)) dosed into the lateral vein of the tail. […] Mortality was recorded daily. The Maximum Tolerated Dose (MTD) was determined based on the mortality found in each dose level, calculated when mortality vs. dose is 0%.
# [6] = test system: CD-1 male mice; experiment: Multiple-administration dose range finding in mice (MTMD); type: in vivo
# Procedure: The finality of this assay was to determine the maximum tolerated multiple dose (MTMD) in mice by a multiple administration of the drug.
# CD-1 male mice were used for this study, weighing ca. 25 g were randomly allocated to several dosing groups. Animals received a multiple doses by either intravenous or extravascular (intraperitoneal) route. […] Mortality was daily recorded. The MTMD was determined based on the mortality found in each dose level, calculated when mortality vs. dose is 0%.
# [7] = target: T1, cytochrome b-cl segment (Bos taurus, UniProt P00157+P13272); conditions: bovine heart submitochondrial particles; cited from earlier work
# T1 construct: bovine heart submitochondrial particles at the site of the cytochrome b-cl segment; host or cells: bovine heart submitochondrial particles
# [8] = test system: photosynthetic electron transport; conditions: cited from earlier work
Structure (SMILES),TGI [1] [Molar],GI50 [1] [nM],TGI [2] [Molar],GI50 [2] [nM],CC50 [3] [nM],GI50 [3] [nM],TGI [3] [Molar],pIC50 [4],MTD at 4 days [5] [mg/kg],"MTMD ([6]; ip/5DD, liposomes at 0.035 mg/mL) [mg/kg]","MTMD ([6]; iv/5DD, liposomes at 0.096 mg/mL) [mg/kg]",inhibitory potency [7],inhibition of photosynthetic electron transport [8]
CCCC(C)/C=C/C=C/[C@H](OC)[C@@H](C)[C@@H](OC)[C@@H](C)CCc1oc2c(O)c(OC)cc(OC)c2c(=O)c1C (stereo partly shown) [Compound I],3.20E−6,153,5.84E−6,867,4150,92.3,5.28E−7,6.65,,,,,
C/C=C(C)/C=C/C=C/C(OC)C(C)C(OC)C(C)CCc1oc2c(O)c(OC)cc(OC)c2c(=O)c1C (stereo not shown) [Stigmatellin A],,389,,991,7580,602,1.94E−6,5.01,0.44,0.28,0.14,identical with that of antimycin and myxothiazol,powerful inhibitor
